Test results: patent US20110245159A1, “Salts, Solvates and Pharmaceutical Compositions of Macrocyclic Ghrelin Receptor Agonists and Methods of Using the Same” (priority 2009, published 2011)
Values belong to the compound of their own block, whether it stands above or below them.

Legend:
[1] = Dynamic vapor sorption/desorption (DVS) hygroscopicity; assay type: physicochemical
Method: The hygroscopicity of salts, solvates and polymorphs of the invention can be assessed by both static and dynamic hygroscopicity studies. For the latter, dynamic vapor sorption/desorption (DVS) experiments can be performed on an SGA-100 gravimetric sorption analyzer (or similar). The experimental protocol typically included full weight equilibrium at 0% RH.
The hygroscopicity of compound 298.HCl.H2O was assessed by both static and dynamic vapor sorption/desorption (DVS) experiments were performed at 25° C. according to Method 4M.

[2] = Static hygroscopicity study; assay type: physicochemical; details: 3 months, 80% RH, 25° C.
Method: The static hygroscopicity study was performed by exposing compound 298.HCl.H2O for a period of 3 months to 80% RH humidity at 25° C. […] The sample was analyzed at 1-week, 1-month, 2-month and 3-month time points by the following methods: DSC, thermogravimetric analysis and Karl-Fischer titrimetry.

[3] = Stability testing of compound 298.HCl.H2O at storage conditions; assay type: physicochemical
Excerpt: For determining the stability of an active pharmaceutical ingredient (API) or a pharmaceutical composition, the approach as outlined for regulatory purposes in International Conference on Harmonisation of Technical Requirements for Registration of Pharmaceuticals for Human Use (ICH) Q1A Guideline: Stability Testing of New Drug Substances and Products, February 2003, can be followed. In summary, this entails repetition of certain analytical tests on samples stored at three representative controlled conditions to ascertain whether or not any degradation or loss of potency has occurred. The typical conditions employed are: (1) 25° C.±2° C., 60%±5% relative humidity (RH); (2) 30° C.±2° C., 65%±5% RH; (3) 40° C.±2° C., 75%±5% RH (often termed accelerated stability). The photostability as outlined in International Conference on Harmonisation of Technical Requirements for Registration of Pharmaceuticals for Human Use (ICH) Q1B Guideline: Stability Testing: Photostability Testing of New Drug Substances and Products, November 1996, is typically also investigated.
The purpose of this procedure is to determine the purity of representative salts, solvates and polymorphs of the invention by reverse phase HPLC. Any appropriate detection method compatible with HPLC can be utilized, such as single or dual wavelength ultraviolet (UV) detection, evaporative light scattering detection (ELSD) or chemiluminescent nitrogen detection (CLND). For most cases, UV detection would be preferred. Purity can be determined by peak area %. The same assay conditions are used to determine the level of impurities and the potency. The parameters for this HPLC assay are delineated below.
Moisture level is determined by Karl Fischer titrimetry using the direct titration method, in accordance with USP <921 1a>.

[4] = rat, in vivo, sc
Method: Formulations A, B-1, B-2 and B-3 were administered to male Sprague-Dawley rats subcutaneously (sc) at a dosing volume of 5 mL/kg.
Blood was collected via the JVC into tubes containing sodium EDTA (NaEDTA) and placed on ice until centrifugation. Samples were centrifuged at 13,000 rpm for 5 min with the temperature maintained at 4° C. Plasma was separated and stored frozen on dry ice prior to analysis.
The pharmacokinetic (PK) parameters for each animal were calculated using non-compartmental modeling (extravascular input model) and WinNonlin software (version 5.2, Pharsight). The half-life (t1/2), Area Under the Concentration Versus Time Curve from time 0 to the last quantifiable point (AUC0-t) and to infinity (AUC0-∞) were calculated and the observed Cmax and Tmax tabulated for each animal and dose group. […] The terminal elimination rate constant was calculated for the purpose of obtaining the extrapolated AUC0-∞ values.

GH secretion = details: animal models; cited from earlier work
[5] = humans, unspecified formulation; cited from earlier work
POI = details: unspecified formulation; cited from earlier work
diabetic gastroparesis = details: unspecified formulation; cited from earlier work
[6] = Solubility of compound 298 salts, HPLC-CLND; details: 20 mg compound 298 + 0.5 mL aqueous acid (1.1 eq), agitated 72 h
Method: The pH of the solution was then measured and the amount of dissolved salt determined by HPLC-CLND analysis.

[7] = Batch 1, 25° C., 60% RH, 12 mos
[8] = Batch 1, 25° C., 60% RH, 18 mos
[9] = Batch 1, 25° C., 60% RH, 24 mos
[10] = Example 3, 25° C., 60% RH, 0 mos
[11] = Example 3, 25° C., 60% RH, 3 mos
[12] = Example 3, 25° C., 60% RH, 6 mos
[13] = Example 3, 25° C., 60% RH, 9 mos
[14] = Example 3, 25° C., 60% RH, 12 mos
[15] = Example 3, 25° C., 60% RH, 18 mos
[16] = Example 3, 40° C., 75% RH, 0 mos
[17] = Example 3, 40° C., 75% RH, 1 mos
[18] = Example 3, 40° C., 75% RH, 3 mos
[19] = Example 3, 40° C., 75% RH, 6 mos

Hygroscopicity [1]: Non-hygroscopic | Hygroscopicity ([1]; DVS, 25° C.): essentially non-hygroscopic | Weight change ([1]; DVS, 25° C., 20%-90% relative humidity range): 1% | Weight loss (lattice water lost) ([1]; DVS, 25° C., equilibration at 0% RH): 2.6% | Deliquescence [2]: No deliquescence was detected | Hygroscopicity ([2]; static study): essentially non-hygroscopic | HPLC Assay (% Purity) ([3]; Batch 1, 5° C., 0 mos): 100.48% | Total Impurities (%) ([3]; Batch 1, 5° C., 0 mos): 0.41% | HPLC Assay (% Purity) ([3]; Batch 1, 5° C., 3 mos): 98.72% | Total Impurities (%) ([3]; Batch 1, 5° C., 3 mos): 0.39% | HPLC Assay (% Purity) ([3]; Batch 1, 5° C., 6 mos): 98.48% | Total Impurities (%) ([3]; Batch 1, 5° C., 6 mos): 0.42% | HPLC Assay (% Purity) ([3]; Batch 1, 5° C., 9 mos): 100.78% | Total Impurities (%) ([3]; Batch 1, 5° C., 9 mos): 0.47% | HPLC Assay (% Purity) ([3]; Batch 1, 5° C., 12 mos): 98.19% | Total Impurities (%) ([3]; Batch 1, 5° C., 12 mos): 0.42% | HPLC Assay (% Purity) ([3]; Batch 1, 5° C., 18 mos): 98.68% | Total Impurities (%) ([3]; Batch 1, 5° C., 18 mos): 0.43% | HPLC Assay (% Purity) ([3]; Batch 1, 5° C., 24 mos): 100.15% | Total Impurities (%) ([3]; Batch 1, 5° C., 24 mos): 0.43% | HPLC Assay (% Purity) ([3]; Batch 1, 25° C., 60% RH, 0 mos): 100.48% | Total Impurities (%) ([3]; Batch 1, 25° C., 60% RH, 0 mos): 0.41% | HPLC Assay (% Purity) ([3]; Batch 1, 25° C., 60% RH, 1 mos): 98.99% | Total Impurities (%) ([3]; Batch 1, 25° C., 60% RH, 1 mos): 0.40% | HPLC Assay (% Purity) ([3]; Batch 1, 25° C., 60% RH, 3 mos): 98.39% | Total Impurities (%) ([3]; Batch 1, 25° C., 60% RH, 3 mos): 0.40% | HPLC Assay (% Purity) ([3]; Batch 1, 25° C., 60% RH, 6 mos): 98.81% | Total Impurities (%) ([3]; Batch 1, 25° C., 60% RH, 6 mos): 0.42% | HPLC Assay (% Purity) ([3]; Batch 1, 25° C., 60% RH, 9 mos): 100.65% | Total Impurities (%) ([3]; Batch 1, 25° C., 60% RH, 9 mos): 0.46% | HPLC Assay (% Purity) [3, 7]: 97.59% | Total Impurities (%) [3, 7]: 0.49% | HPLC Assay (% Purity) [3, 8]: 99.81% | Total Impurities (%) [3, 8]: 0.21% | HPLC Assay (% Purity) [3, 9]: 100.24% | Total Impurities (%) [3, 9]: 0.48% | HPLC Assay (% Purity) ([3]; Batch 1, 40° C., 75% RH, 0 mos): 100.48% | Total Impurities (%) ([3]; Batch 1, 40° C., 75% RH, 0 mos): 0.41% | HPLC Assay (% Purity) ([3]; Batch 1, 40° C., 75% RH, 1 mos): 98.49% | Total Impurities (%) ([3]; Batch 1, 40° C., 75% RH, 1 mos): 0.39% | HPLC Assay (% Purity) ([3]; Batch 1, 40° C., 75% RH, 3 mos): 98.22% | Total Impurities (%) ([3]; Batch 1, 40° C., 75% RH, 3 mos): 0.40% | HPLC Assay (% Purity) ([3]; Batch 1, 40° C., 75% RH, 6 mos): 98.41% | Total Impurities (%) ([3]; Batch 1, 40° C., 75% RH, 6 mos): 0.44% | HPLC Assay (% Purity) [3, 10]: 99.9% | Potency Assay (HPLC wt %) [3, 10]: 89.1 wt % | Total Impurities (%) [3, 10]: 0.06% | Water Content (%) [3, 10]: 3.9% | HPLC Assay (% Purity) [3, 11]: 99.9% | Potency Assay (HPLC wt %) [3, 11]: 90.2 wt % | Total Impurities (%) [3, 11]: 0.12% | Water Content (%) [3, 11]: 4.2% | HPLC Assay (% Purity) [3, 12]: 99.9% | Potency Assay (HPLC wt %) [3, 12]: 90.1 wt % | Total Impurities (%) [3, 12]: 0.07% | Water Content (%) [3, 12]: 4.1% | HPLC Assay (% Purity) [3, 13]: 99.9% | Potency Assay (HPLC wt %) [3, 13]: 90.5 wt % | Total Impurities (%) [3, 13]: 0.06% | Water Content (%) [3, 13]: 4.3% | HPLC Assay (% Purity) [3, 14]: 99.9% | Potency Assay (HPLC wt %) [3, 14]: 89.9 wt % | Total Impurities (%) [3, 14]: 0.06% | Water Content (%) [3, 14]: 3.1% | HPLC Assay (% Purity) [3, 15]: 99.8% | Potency Assay (HPLC wt %) [3, 15]: 89.8 wt % | Total Impurities (%) [3, 15]: 0.07% | Water Content (%) [3, 15]: 4.0% | HPLC Assay (% Purity) [3, 16]: 99.9% | Potency Assay (HPLC wt %) [3, 16]: 89.1 wt % | Total Impurities (%) [3, 16]: 0.06% | Water Content (%) [3, 16]: 3.9% | HPLC Assay (% Purity) [3, 17]: 99.8% | Potency Assay (HPLC wt %) [3, 17]: 88.4 wt % | Total Impurities (%) [3, 17]: 0.18% | Water Content (%) [3, 17]: 3.5% | HPLC Assay (% Purity) [3, 18]: 99.9% | Potency Assay (HPLC wt %) [3, 18]: 92.1 wt % | Total Impurities (%) [3, 18]: 0.12% | Water Content (%) [3, 18]: 3.7% | HPLC Assay (% Purity) [3, 19]: 99.9% | Potency Assay (HPLC wt %) [3, 19]: 89.6 wt % | Total Impurities (%) [3, 19]: 0.07% | Water Content (%) [3, 19]: 4.2% | Appearance as a white powder ([3]; Example 3, over the 6 month period): remained unchanged | AUC0-∞ dependence on dose [4]: increased proportionally with dose | Increase in Cmax with dose [4]: less than dose-proportional
Compound: CC1CNC(C2CC2)C(=O)N(C)C(C)C(=O)NC(Cc2ccc(F)cc2)C(=O)NCCCc2ccccc2O1.Cl.O (stereo not drawn) [Compound 298•HCl•H2O]
XRPD analysis ([3]; Example 3, both storage conditions after 6 months): still consistent with the standard pattern

Compound: C[C@@H]1CN[C@@H](C2CC2)C(=O)N(C)[C@H](C)C(=O)N[C@H](Cc2ccc(F)cc2)C(=O)NCCCc2ccccc2O1 [compound 298]
Concurrent GH secretion (GH secretion): did not stimulate concurrent GH secretion | Safety and pharmacokinetic properties [5]: appropriate safety and pharmacokinetic properties | Efficacy for the treatment of POI (POI): efficacy | Efficacy for the treatment of diabetic gastroparesis (diabetic gastroparesis): efficacy

pH at 72 hr [6]: 3.6
Compound: Fumarate
